Reference: patent publication US20240261292A1, “COMBINATION THERAPIES” (Janssen Pharmaceutica NV, priority 2021, published 2024)
Structures can show the parent of a compound that is named as a salt.

Test system: iCell Cardiomyocytes2 (hSC-CMs)
Experiment: Ca2+-fluorescence assay in human pluripotent stem cell-derived cardiomyocytes (CTCM human)
Assay type: cell-based
Parameters: key to Hazard Scoring Color @ 0.1 μM / Hazard Scoring Color @ 0.2 μM / Hazard Scoring Color @ 0.5 μM / Hazard Scoring Color @ 1 μM / Hazard Scoring Color @ 2.5 μM / Hazard Scoring Color @ 5 μM / Hazard Scoring Color @ 0.3 μM / Hazard Scoring Color @ 3 μM / Hazard Scoring Color @ 10 μM / Hazard Scoring Color @ 30 μM: Green: No concern; Yellow: Low concern; Red: High concern; Black: Very high concern due to arrhythmic events
Conditions: 30 min
Method: 7) Cardio-Electrophysiological Effects of the Testing Compounds in Synchronously Beating Human Pluripotent Stem Cell-Derived Cardiomyocytes (hSC-CMs) Using a Ca^2+-Fluorescence Assay (CTCM Human)
Compounds were tested in the 96-well plates.
Compounds were tested at 0.1 μM, 0.2 μM, 0.5 μM, 1 μM, 2.5 μM and 5 μM (n=4 per dose) on Cor.4U®-Cardiomyocytes or on iCell® Cardionyocytes2.
Alternatively, compounds were tested at 0.1 μM, 0.3 μM; 1 μM, 3 μM, 10 μM and 30 μM (n=4 per dose) mostly on iCell® Cardiomyocytes2.
Vehicle control: Dimethylsulfoxide (DMSO). The solutions of the compound in DMSO or its solvent (final concentration of 0.1% DMSO; n=8).
Tested compounds were dissolved in DMSO at 1000-fold the intended concentrations. A compound “mother-plate” was made, containing the test compounds and positive and negative controls at 1000-fold the final concentrations. At the experiment day, these stock solutions were diluted with Tyrode (Sigma), supplemented with 10 mM HEPES (Gibco), to 2-fold the intended concentration (in round bottom compound plates). Final DMSO concentration in test solutions and vehicle control was 0.1%.
hSC-CMs (Cor.4U® Cardiomyocytes) were obtained from CDI (Ncardia, Germany). Cells are pre-plated and seeded in fibronectin-coated 96-well plates at a density suited to form a monolayer and maintained in culture in a stage incubator (37° C., 5% CO2), according to the instructions of the cell provider.
Second line hSC derived cardiomyocyte called iCell® Cardiomyocytes2 were purchased from FUJIFILM Cellular Dynamics (USA). The experiments with test drugs are carried out 5 to 7 days after plating the cells onto the plate to have a living, beating monolayer of hiPSC-derived cardiomyocytes. The beating monolayer in 96-well-plates are normally taken from 2 Vials of frozen iCell® Cardiomyocytes2 (≈5 million cells/vial), which will be plated onto three 96-well plates (≈50K/well).
At least one hour before the start of the experiments the normal cell medium was replaced with Tyrode solution with Calcium dye (see below).
Cal 520 dye (AAT Bioquest) was dissolved in 11 ml of Tyrode supplemented with 10 mM HEPES and warmed up to 37 C before adding to the cells.
35 μl cell culture medium was removed from each well and replaced with 35 μl of pre-warmed Cal 520 dye solution and cell plate was incubated for 45 min at 37° C./5% CO2. Cells were incubated for 5 min at 37° C.
Spontaneous electrical activity is recorded, using Cal520™ (AAT Bioquest) calcium fluorescence-dye signalling. This dye integrates the total intracellular calcium activity over the whole well. A bottle of Ca1520 dye (50 μg, MW: 1103/mol) is dissolved with 50 μl DMSO as a stock solution of 0.9 mM. 50 μL of the stock solution of the dye was added to 10 ml Tryodes solution to have dye concentration of 4.5 μM. Subsequently, 35 μl of this dye solution was added into each well, to have a final dye concentration of 1.58 μM. The current dye protocol on this CTCM human assay was established recently (Ivan Kopljar et al, Journal of Pharmacological and toxicological methods 2018. 91: 80-86; Lu et al., Tox Sci 2019. 170 (2): 345-356).
Fluorescent signals (Ca^2+ transient morphology) were measured using the Functional Drug Screen System (FDSS/μCell; Hamamatsu, Japan) and the recordings were subsequently analyzed off-line, using appropriate software e.g., Notocord.
The cell plate was loaded into the FDSS/μCell for a test run: Ca^2+ transients were measured for 4 minutes to check for synchronous beating of the cardiomyocytes in each well. All 96 wells were measured simultaneously (sampling interval: 0.06 s, short exposure time: 10 ms; excitation wavelength 480 nm; emission wavelength 540 nm; FDSS/μCell warmed to 37° C.).
During the compound addition step, 100 μl of the respective double-concentrated test solutions was pipetted into each well simultaneously.
Data were analyzed off-line using appropriate software e.g., Notocord-Hem (version 4.3). […]

[1] = iCell Cardiomyocytes2 (Table 12)
[2] = iCell Cardiomyocytes2 (Table 11)

CCN(C(=O)c1cc(F)ccc1Oc1nncnc1N1CCC2(C1)CN([C@H](CCCNCCOC)C(C)C)C2)C(C)C [Compound 11, (R)-N-ethyl-5-fluoro-N-isopropyl-2-((5-(2-(6-((2-methoxyethyl)amino)-2-methylhexan-3-yl)-2,6-diazaspiro[3.4]octan-6-yl)-1,2,4-triazin-6-yl)oxy)benzamide]
Green: Hazard Scoring Color @ 0.1 μM [1] | Hazard Scoring Color @ 0.3 μM (0.3 μM, iCell Cardiomyocytes2 (Table 12)) | Hazard Scoring Color @ 1 μM [1] | Hazard Scoring Color @ 3 μM (3 μM, iCell Cardiomyocytes2 (Table 12)) | Hazard Scoring Color @ 10 μM (10 μM, iCell Cardiomyocytes2 (Table 12)) | Hazard Scoring Color @ 30 μM (30 μM, iCell Cardiomyocytes2 (Table 12))

CCN(C(=O)c1cc(F)ccc1Oc1nncnc1N1CCC2(C1)CN([C@H](CCCN(C)CCOC)C(C)C)C2)C(C)C [Compound A3, (R)-N-ethyl-5-fluoro-N-isopropyl-2-((5-(2-(6-((2-methoxyethyl) (methyl)amino)-2-methylhexan-3-yl)-2,6-diazaspiro[3.4]octan-6-yl)-1,2,4-triazin-6-yl)oxy) benzamide oxalate]
Green: Hazard Scoring Color @ 0.1 μM [2] | Hazard Scoring Color @ 0.2 μM (0.2 μM, iCell Cardiomyocytes2 (Table 11)) | Hazard Scoring Color @ 0.5 μM (0.5 μM, iCell Cardiomyocytes2 (Table 11)) | Hazard Scoring Color @ 1 μM [2] | Hazard Scoring Color @ 2.5 μM (2.5 μM, iCell Cardiomyocytes2 (Table 11)) | Hazard Scoring Color @ 5 μM (5 μM, iCell Cardiomyocytes2 (Table 11))
